Measured values as given in patent US20020103228A1, “Composition and method for use of pyridinium derivatives in cosmetic and therapeutic applications” (TORRENT PHARMACEUTICALS LTD., priority 1999, published 2002).

Experiments:
AGE-BSA = target: T1, AGE-BSA (Bos taurus, UniProt P02769); assay: In-vitro AGE breaking activity by ELISA; assay type: biochemical, Bovine; settings: 37° C., 24 hours
T1 construct: Bovine serum albumin (fraction V) (BSA); from tissue; host or cells: bovine serum (fraction V); glycated in house with 1.6 M glucose at 37 °C for 16 weeks
T1 sequence (P02769 25-607): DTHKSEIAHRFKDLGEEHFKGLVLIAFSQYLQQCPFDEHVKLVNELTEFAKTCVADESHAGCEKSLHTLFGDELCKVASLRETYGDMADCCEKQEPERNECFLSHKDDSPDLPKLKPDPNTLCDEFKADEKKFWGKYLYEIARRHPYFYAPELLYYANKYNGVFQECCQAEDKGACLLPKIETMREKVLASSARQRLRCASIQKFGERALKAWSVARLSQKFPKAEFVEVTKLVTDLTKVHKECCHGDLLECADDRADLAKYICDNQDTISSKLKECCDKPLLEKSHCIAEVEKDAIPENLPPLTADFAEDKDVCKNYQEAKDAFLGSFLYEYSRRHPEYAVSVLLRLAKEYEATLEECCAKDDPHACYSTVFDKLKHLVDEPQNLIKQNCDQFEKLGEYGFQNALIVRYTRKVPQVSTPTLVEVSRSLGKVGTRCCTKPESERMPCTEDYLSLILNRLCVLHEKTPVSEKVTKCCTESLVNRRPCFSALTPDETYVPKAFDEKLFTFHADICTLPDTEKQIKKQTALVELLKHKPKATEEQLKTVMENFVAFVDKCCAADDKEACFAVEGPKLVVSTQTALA
Experimental: AGE breaking activity has been confirmed by the screening procedure as mentioned below:
Methods of experiment: Elisa (Enzyme Linked Immunosorbent Assay)
160 mg/ml of protein, bovine serum albumin, BSA and 1.6M glucose sugar were dissolved in phosphate buffered saline, PBS. Sodium azide was added at 0.02% concentration as a preservative. The solution was filtered asceptically through a […] filter and kept for aging at 37° C. for 16 weeks. After 16 weeks the solution was dialyzed against PBS, aliquoted and stored at −20° C.
To determine the AGE breaking activity, 10 μg/ml of the 16 weeks AGE-BSA was incubated with different concentrations of the test compounds at 37° C. for 24 hours and AGE breaking activity of the test compounds by ELISA was determined.
ELISA was performed as follows
1. Different concentrations of 16 weeks AGE-BSA were coated on a microtiter plate as standard. Each concentration is coated in triplicates.
2. The test samples were coated on microtiter plate at a concentration of 5 ng to 20 ng per well in triplicates
3. The plate was incubated at 37° C. for one hour.
4. After incubation the plate was washed with PBST (PBS with 0.05% Tween 20).
5. Blocking with 5% skimmed milk in PBS at 37° C. for one hour was done.
6. The plate was washed with PBST.
7. Primary antibody against AGE-BSA was added and the plate is incubated at 37° C. for one hour.
8. The plate was washed with PBST
9. Secondary antibody anti rabbit HRPO (Horse-Radish Per Oxidase) conjugate was added and the plate is incubated at 37° C. for one hour.
10. The plate was washed with PBST.
11. Colour development with OPD (orthophenylenediamine dihydrochloride) and hydrogen peroxide was done.
12. OD (optical density) at (450 nm reading-620 nm reading) was measured after incubation at 37° C. for 15 minutes with Microplate ELISA Reader
The breaker activity of the compounds were determined by the following formula: [formula]
OD450-620Control=Absorbance of 20 ng AGE-BSA after incubation at 37° C. for 24 hours without test compound
OD450-620Test=Absorbance of 20 ng AGE-BSA after incubation at 37° C. for 24 hours with required concentration of test compound
Using specific examples, the % AGE breaking activity was calculated and recorded in Table 2.

[1] = Free radical scavenging activity on ABTS radical cation; assay type: biochemical
Experimental: This method measures the relative ability of free radical scavenging substances to scavenge the ABTS^.+ i.e. 2,2-Azino-bis-(3-ethyl benzo thiazoline-6-sulfonate) radical cation as compared to a standard amount of standard or free radical scavengers antioxidants. Incubation of ABTS with Peroxidase (metmyoglobin) and hydrogen peroxide results in the production of radical cation ABTS^.+. This species is blue-green in colour and can be detected at 730 nm. Antioxidants or free radical scavengers in the added sample that causes suppression of the color to a degree that is proportional to their concentration.
Preparation of Buffer Solutions
A. Phosphate Citrate Buffer (pH 5.0). 48.5 ml of 0.1M citric acid with sufficient 0.2M disodium hydrogen phosphate to produce 100 ml.
B. Phosphate Buffer Saline (PBS): Dissolve 40.0 g of NaCl, 1.0 g of KCl, 1.0 g of KH2PO4 and 3.05 g of Na2HPO4 in 1 liter milli-Q water. Dilute 200 ml of above solution to 1 liter with milli-Q water (pH 7.4-7.6).
C. 3 μM stock solution of Peroxidase was prepared in phosphate buffer saline pH 7.4(PBS).
D. 1.08 mM stock solution of Hydrogen peroxide was prepared in phosphate buffer saline pH 7.4 (PBS).
Preparation of ABTS Stock Solution
1 tablet (10 mg) was dissolved in phosphate citrate buffer (pH 5.0).
Preparation of ABTS Working Solution
5.0 ml of ABTS stock solution was diluted with PBS to 20 ml.
Preparation of Horse Radish Peroxidase Stock Solution
320 μg of the enzyme was dissolved in 2.5 ml of PBS.
Preparation of Hydrogen Peroxide (1.08 mM) Solution
12 μl of Hydrogen Peroxide (30% w/v) was diluted to 100 ml with PBS. […]
Preparation of ABTS Radical Stock Solution
To 18 ml of ABTS stock solution, 100 μl of Horseradish Peroxidase stock solution was added.
As soon as 1.5 ml of hydrogen peroxide solution was added to the above solution, blue-green colour of the ABTS radicals appeared. This solution was incubated at 30° C. for 30 min.
Preparation of Control Solution
980 μl of ABTS radical stock solution was added to an eppendorf tube. To it was added 100 μl of various PBS solution.
Preparation of test Solution
980 μl of ABTS radical stock solutions were added to different eppendorf tubes. To it were added 100 μl of various concentrations of drug solution.
Measurement of Absorbance (O.D)
The absorbance of control and test samples was recorded immediately at 730 nm taking PBS as blank.
Calculation: The percent antioxidant activity was calculated according to the formula. % Antioxidant activity=[O.D of test sample/O.D of control*100]−100.

SMILES: COCCNC(=O)c1ccc[n+](CC(=O)c2ccc(Cl)cc2Cl)c1.[Br-] [Compound 38, 1-(2′,4′-dichlorophenyl-2-oxoethyl)-3-(2-methoxyethylaminocarbonyl)-pyridinium bromide]
- % Breakage (AGE-BSA; 5 mM test compound): 17.66%
- Relative Free Radical Scavenging Activity (%) on ABTS ([1]; 11.5 μM): 47.2%
- Relative Free Radical Scavenging Activity (%) on ABTS ([1]; 23.0 μM): 54.8%
- Relative Free Radical Scavenging Activity (%) on ABTS ([1]; 46.0 μM): 71.0%
- Relative Free Radical Scavenging Activity (%) on ABTS ([1]; 92.5 μM): 89.5%
- Relative Free Radical Scavenging Activity (%) on ABTS ([1]; 925 μM): 100%

SMILES: CS(=O)(=O)NNC(=O)c1ccc[n+](CC(=O)c2cccs2)c1.[Cl-] [Compound 45, 1-(2-thien-2′-yl-2-oxoethyl)-3-(methanesulfonyl hydrazinocarbonyl)pyridinium chloride]
- % Breakage (AGE-BSA; 10 mM test compound): 17.53%
- Relative Free Radical Scavenging Activity (%) on ABTS ([1]; 11.5 μM): 53.9%
- Relative Free Radical Scavenging Activity (%) on ABTS ([1]; 23.0 μM): 56.2%
- Relative Free Radical Scavenging Activity (%) on ABTS ([1]; 46.0 μM): 78.7%
- Relative Free Radical Scavenging Activity (%) on ABTS ([1]; 92.5 μM): 99.8%
- Relative Free Radical Scavenging Activity (%) on ABTS ([1]; 925 μM): 100%

SMILES: CC(C)S(=O)(=O)NNC(=O)c1ccc[n+](CC(=O)c2cccs2)c1.[Br-] [Compound 50, 1-(2-thien-2′-yl-2-oxoethyl)-3-(isopropylsulfonyl hydrazinocarbonyl)pyridinium bromide]
- % Breakage (AGE-BSA; 10 mM test compound): 31.45%
- Relative Free Radical Scavenging Activity (%) on ABTS ([1]; 11.5 μM): 3.30%
- Relative Free Radical Scavenging Activity (%) on ABTS ([1]; 23.0 μM): 23.06%
- Relative Free Radical Scavenging Activity (%) on ABTS ([1]; 46.0 μM): 54.95%
- Relative Free Radical Scavenging Activity (%) on ABTS ([1]; 92.5 μM): 89.31%

SMILES: CS(=O)(=O)NNC(=O)c1ccc[n+](CC(=O)N2CCC(Cc3ccccc3)CC2)c1.[Cl-] [Compound 51, 1-(2-(4-benzylpiperidin-1-yl)-2-oxoethyl)-3-(methanesulfonyl hydrazinocarbonyl)pyridinium chloride]
- % Breakage (AGE-BSA; 10 mM test compound): 20.94%
- Relative Free Radical Scavenging Activity (%) on ABTS ([1]; 11.5 μM): 0.00%
- Relative Free Radical Scavenging Activity (%) on ABTS ([1]; 23.0 μM): 21.64%
- Relative Free Radical Scavenging Activity (%) on ABTS ([1]; 46.0 μM): 52.82%
- Relative Free Radical Scavenging Activity (%) on ABTS ([1]; 92.5 μM): 83.94%

SMILES: CCOC(=O)NNC(=O)c1ccc[n+](CC(=O)c2cccs2)c1.[Br-] [Compound 54, 1-(2-thien-2′-yl-2-oxoethyl)-3-(ethoxycarbonyl hydrazinocarbonyl)pyridinium bromide]
- % Breakage (AGE-BSA; 10 mM test compound): 33.43%
- Relative Free Radical Scavenging Activity (%) on ABTS ([1]; 11.5 μM): 5.22%
- Relative Free Radical Scavenging Activity (%) on ABTS ([1]; 23.0 μM): 15.45%
- Relative Free Radical Scavenging Activity (%) on ABTS ([1]; 46.0 μM): 46.82%
- Relative Free Radical Scavenging Activity (%) on ABTS ([1]; 92.5 μM): 77.07%

SMILES: CS(=O)(=O)NNC(=O)c1ccc[n+](CC(=O)c2ccc(Cl)s2)c1.[Br-] [Compound 55, 1-(2-(5-chlorothien-2-yl)-2-oxoethyl)-3-(methanesulfonyl hydrazinocarbonyl)pyridinium bromide]
- % Breakage (AGE-BSA; 10 mM test compound): 40.85%
- Relative Free Radical Scavenging Activity (%) on ABTS ([1]; 11.5 μM): 46.47%
- Relative Free Radical Scavenging Activity (%) on ABTS ([1]; 23.0 μM): 84.97%
- Relative Free Radical Scavenging Activity (%) on ABTS ([1]; 46.0 μM): 99.50%
- Relative Free Radical Scavenging Activity (%) on ABTS ([1]; 92.5 μM): 99.93%
